Measured values as given in patent publication US20060034781A1, “PERORAL PREPARATION FOR PREVENTION OR TREATMENT OF ATOPIC DERMATATIS” (Kyowa Hakko Kogyo Co., Ltd., priority 2002, published 2006).

Legend:
Assay type in all cases: in vivo
Settings in all cases: oral, in feed (0.25% N-acetyl-trans-4-hydroxy-L-proline or 0.5% trans-4-hydroxy-L-proline) versus control feed
NC/Nga mice = experiment: Suppression of auricular edema in DNCB-treated atopic dermatitis model mice
Experimental: (§1) For the test, NC/Nga mice (five weeks age; purchased from Charles River) were used. The breeding conditions were that the mice were bred under room temperature of 22±2° C. and humidity of 35±15% and that feed and water were freely taken by them.
(§2) The test feed was prepared by well mixing of powdery feed CE-2 (manufactured by Nippon Claire) with 0.25% by weight of N-acetyl-trans-4-hydroxy-L-proline or 0.50% by weight of trans-4-hydroxy-L-proline. The feed containing N-acetyl-trans-4-hydroxy-L-proline was named a feed 1 while the feed containing trans-4-hydroxy-L-proline was named a feed 2 and, as a control feed, a powdery feed CE-2 was used.
With regard to the hapten, a product prepared by dissolving 1.5% by weight of dinitrochlorobenzene (DNCB) in a solution comprising 20% by volume of olive oil and 80% by volume of acetone was used. […]
Starting from the day when application of the hapten started, thickness of the right auricle was measured using Pescock Dial Thickness Gauge (manufactured by Ozaki Seisakusho) one daily.
An increasing amount of auricular edema was calculated according to the following formula 1 as a relative value to an increasing amount of auricular edema of a mouse which was not treated with DNCB and the result is shown in Table 2. […]

IgE = IgE concentration in serum of atopic dermatitis model mice (ELISA)
Experimental: as §1, §2
(§3) With regard to the hapten, a product prepared by dissolving 1.5% by weight of dinitrochlorobenzene (DNCB) in a solution comprising 20% by volume of olive oil and 80% by volume of acetone was used.
(§4) Three mice were used for each of the test groups, and 20 μl of 1.5% DNCB was respectively applied onto both side of the right auricle of each of the mice after nine days, ten days, thirteen days and fourteen days from initiation of administration of the test feed.
With regard to the model mice where atopic dermatitis appeared used in Test Example 1, blood was collected from right thigh on the 27th day from initiation of administration of the test feed. […]

mast cells = experiment: Mast cell density at auricle of atopic dermatitis model mice (Toluidine Blue staining)
Experimental: as §1, §2, §3, §4
With regard to the model mice where atopic dermatitis appeared used in Test Example 1, tissues at auricle were frozen and embedded in Tissue-Tek O. C. T. Compound (manufactured by Sakura Seiki K. K.) on the 27th day from initiation of administration of the test feed. […]

SMILES	auricular edema induced by DNCB (result in words) (NC/Nga mice)	increase in IgE concentration in serum by application of DNCB (result in words) (IgE)	increase in mast cell density by application of DNCB (result in words) (mast cells)
O=C(O)[C@@H]1C[C@@H](O)CN1 [trans-4-hydroxy-L-proline]	apparently suppressed	significantly suppressed	apparently suppressed
CC(=O)N1C[C@H](O)C[C@H]1C(=O)O [N-acetyl-trans-4-hydroxy-L-proline]	apparently suppressed	significantly suppressed	apparently suppressed
